Assay results reported in patent US6780869B1, “Pyrimidine derivatives” (SmithKline Beecham Corporation, priority 1999, dated 2004).

Tests used:
COX-1 [1] = target: T1, COX-1 (Homo sapiens, UniProt P23219); test: Cell based assay, COS cells stably transfected with human COX-1, PGE2 release; design: expressed in transfected cells; host or cells: COS cells (stably transfected); settings: inhibition of PGE2 release, 30 μM arachidonic acid
Procedure: (§1) Inhibitory activity against human COX-1 and COX-2 was assessed in COS cells which had been stably transfected with EDNA for human COX-1 and human COX-2. 24 Hours prior to experiment, COS cells were transferred from the 175 cm^2 flasks in which they were grown, onto 24-well cell culture plates using the following procedure. The incubation medium (Dulbecco's modified eagles medium (DMEM) supplemented with heat-inactivated foetal calf serum (10% v/v), penicillin (100 IU/ml), streptomycin (100 μg/ml) and geneticin (600 μg/ml)) was removed from a flask of confluent cells (1 flask at confluency contains approximately 1×10^7 cells). 5 ml of phosphate buffered saline (PBS) was added to the flask to wash the cells. Having discarded the PBS, cells were then incubated with 5 ml trypsin for 5 minutes in an incubator (37°). The flask was then removed from the incubator and 5 ml of fresh incubation medium was added. The contents of the flask was transferred to a 250 ml sterile container and the volume of incubation medium subsequently made up to 100 ml. 1 ml cell suspension was pipetted into each well of 4×24-well cell culture plates. The plates were then placed in an incubator (37° C., 95% air/5% CO2) overnight. If more than 1 flask of cells were required, the cells from the individual flasks were combined before being dispensed into the 24-well plates.
Following the overnight incubation, the incubation medium was completely removed from the 24-well cell culture plates and replaced with 250 μl fresh DMEM (37° C.). The test compounds were made up to 250× the required test concentration in DMSO and were added to the wells in a volume of 1 μl. Plates were then mixed gently by swirling and then placed in an incubator for 1 hour (37° C., 95% air/5% CO2). Following the incubation period, 10 μl of arachidonic acid (750 μM) was added to each well to give a final arachidonic acid concentration of 30 μM. […] The selectivity ratio of inhibition of COX-1 versus COX-2 was calculated by comparing respective IC50 values.

human COX-2 = target: T2, human COX-2 (Homo sapiens, UniProt P35354); test: Cell based assay, COS cells stably transfected with human COX-2, PGE2 release; settings: inhibition of PGE2 release, 30 μM arachidonic acid
T2 construct: expressed in transfected cells; host or cells: COS cells (stably transfected)
T2 sequence (P35354 18-604): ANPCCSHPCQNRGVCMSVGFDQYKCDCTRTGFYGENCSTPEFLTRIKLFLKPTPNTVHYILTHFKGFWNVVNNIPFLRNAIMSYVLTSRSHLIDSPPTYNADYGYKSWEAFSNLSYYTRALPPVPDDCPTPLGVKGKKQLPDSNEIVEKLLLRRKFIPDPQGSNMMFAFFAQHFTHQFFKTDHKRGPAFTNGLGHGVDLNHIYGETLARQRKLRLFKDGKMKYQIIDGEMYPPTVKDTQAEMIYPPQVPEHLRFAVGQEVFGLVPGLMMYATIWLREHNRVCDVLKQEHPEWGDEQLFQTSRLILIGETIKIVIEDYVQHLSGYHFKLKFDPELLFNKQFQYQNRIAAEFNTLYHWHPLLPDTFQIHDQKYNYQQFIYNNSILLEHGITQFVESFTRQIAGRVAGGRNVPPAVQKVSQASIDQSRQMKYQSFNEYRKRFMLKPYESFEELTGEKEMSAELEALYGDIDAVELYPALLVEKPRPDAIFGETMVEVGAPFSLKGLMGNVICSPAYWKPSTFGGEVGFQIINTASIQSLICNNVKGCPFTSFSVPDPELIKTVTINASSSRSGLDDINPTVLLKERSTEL
Procedure: as §1, with “24” for “Inhibitory activity against human COX-1 and COX-2 was assessed in COS cells which had been stably transfected with EDNA for human COX-1 and human COX-2. 24”, “Having discarded the PBS, cells were then incubated with 5 ml trypsin for 5 minutes in an incubator (37°).” left out
Following the overnight incubation, the incubation medium was completely removed from the 24-well cell culture plates and replaced with 250 μl fresh DMEM (37° C.). The test compounds were made up to 250× the required test concentration in DMSO and were added to the wells in a volume of 1 μl. Plates were then mixed gently by swirling and then placed in an incubator for 1 hour (37° C., 95% air/5% CO2). […] Plates were then incubated for a further 10 minutes, after which the incubation medium was removed from each well of the plates and stored at −20° C., prior to determination of prostaglandin E2 (PGE2) levels using enzyme immunoassay. […] The selectivity ratio of inhibition of COX-1 versus COX-2 was calculated by comparing respective IC50 values.

microsomal h-COX2 = target: T3, microsomal h-COX2 (Homo sapiens, UniProt P35354); test: Microsomal assay, microsomal preparation from baculovirus infected SF9 cells, PGE2 by EIA; format: biochemical; settings: 0.1 μM arachidonic acid, read-out: COX-2: IC50
T3 construct: made in house; host or cells: baculovirus infected SF9 cells (microsomal preparation)
T3 sequence (P35354 18-604): T2 sequence (P35354 18-604)
Procedure: Inhibitory activity against microsomal h-COX2 was assessed against a microsomal preparation from baculovirus infected SF9 cells. An aliquot of microsomal preparation was thawed slowly on ice and a 1/40,000 dilution prepared from it into the assay buffer (sterile water, degassed with argon containing 100 mM HEPES (pH 7.4), 10 mM EDTA (pH7.4), 1 mM phenol, 1 mM reduced glutathione, 20 mg/ml gelatin and 0.001 mM Hematin). Once diluted the enzyme solution was then sonicated for 5 seconds (Branson sonicator, setting 4, 1 cm tip) to ensure a homogeneous suspension. 155 μl enzyme solution was then added to each well of a 96-well microtitre plate containing either 5 μl test compound (40× required test concentration) or 5 μl DMSO for controls. Plates were then mixed and incubated at room temperature for 1 hour. Following the incubation period, 40 μl of 0.5 μM arachidonic acid was added to each well to give a final concentration of 0.1 μM. Plates were then mixed and incubated for exactly 10 minutes (room temperature) prior to addition of 25 μl 1M HCl (hydrochloric acid) to each well to stop the reaction. 25 μl of 1M NaOH (sodium hydroxide) was then added to each well to neutralise the solution prior to determination of PGE2 levels by enzyme immunoassay (EIA).

COX-1 [2] = target: T1, COX-1; test: Microsomal assay, COX-1; format: biochemical

T1 sequence (P23219 24-599): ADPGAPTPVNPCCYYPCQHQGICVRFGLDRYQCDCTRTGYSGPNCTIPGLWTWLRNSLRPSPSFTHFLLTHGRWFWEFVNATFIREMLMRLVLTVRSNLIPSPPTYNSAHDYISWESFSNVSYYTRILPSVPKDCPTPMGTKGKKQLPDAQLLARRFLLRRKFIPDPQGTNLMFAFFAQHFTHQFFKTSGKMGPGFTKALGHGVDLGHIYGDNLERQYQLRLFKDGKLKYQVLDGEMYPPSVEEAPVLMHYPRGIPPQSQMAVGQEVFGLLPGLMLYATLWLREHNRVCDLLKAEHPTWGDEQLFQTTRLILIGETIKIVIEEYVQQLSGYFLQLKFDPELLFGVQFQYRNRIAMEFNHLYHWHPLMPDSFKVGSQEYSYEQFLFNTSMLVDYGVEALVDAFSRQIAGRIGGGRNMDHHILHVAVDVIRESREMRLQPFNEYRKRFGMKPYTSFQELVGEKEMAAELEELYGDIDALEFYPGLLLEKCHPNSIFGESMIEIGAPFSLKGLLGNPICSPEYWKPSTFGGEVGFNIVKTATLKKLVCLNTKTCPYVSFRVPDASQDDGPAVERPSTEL

Row | IC50 (COX-1 [1]) [nM] | IC50 (human COX-2) [nM] | IC50 (microsomal h-COX2) [nM] | IC50 (COX-1 [2]) [nM] | SMILES
1 | > 24600 | 0.1 | – | – | CS(=O)(=O)c1ccc(-c2cc(C(F)(F)F)nc(NC3CCCC3)n2)cc1 [Example 1, N-cyclopentyl-4-[4-(methylsulfonyl)phenyl]-6-(trifluoromethyl)pyrimidin-2-amine]
2 | > 66000 | 2 | 12 | > 100000 | CC(C)CNc1nc(-c2ccc(S(C)(=O)=O)cc2)cc(C(F)(F)F)n1 [Example 8, N-isobutyl-4-[4-(methylsulfonyl)phenyl]-6-(trifluoromethyl)pyrimidin-2-amine]
3 | > 58400 | 0.5 | – | – | CS(=O)(=O)c1ccc(-c2cc(C(F)(F)F)nc(NC3CCCCC3)n2)cc1 [Example 2, N-cyclohexyl-4-[4-(methylsulfonyl)phenyl]-6-(trifluoromethyl)pyrimidin-2-amine]
4 | – | – | < 1 | > 100000 | CS(=O)(=O)c1ccc(-c2cc(C(F)(F)F)nc(NCC3CCC3)n2)cc1 [Example 31, N-(cyclobutylmethyl)-4-[4-(methylsulfonyl)phenyl]-6-(trifluoromethyl)pyrimidin-2-amine]
